Activity calls are given as the source filed them.

As usually defined, the EC50 is the concentration giving half of the maximal effect. As a reminder, the Ki is a dissociation constant, usually derived from enzyme kinetics or from competition with a known ligand. The term IC50 denotes the concentration that gives 50% inhibition.

One experiment relates to BJ. The experiment is described as follows: cells. Format: functional, cell-based. The note with it: Homo sapiens.
The nature of experiment [1]: fluconazole-exposed Candida albicans growth modulators – fluorescence, retest, confirmation (AID 2467). Format: functional, cell-based.
In experiment [2] the target is Tyrosine-protein kinase SYK (Homo sapiens, UniProt P43405). In kind it is functional.
Experiment [3] deals with Fibroblast growth factor receptor 1 (Homo sapiens, UniProt P11362). In kind it is functional.
Chain of Fibroblast growth factor receptor 1 (P11362 whole entry): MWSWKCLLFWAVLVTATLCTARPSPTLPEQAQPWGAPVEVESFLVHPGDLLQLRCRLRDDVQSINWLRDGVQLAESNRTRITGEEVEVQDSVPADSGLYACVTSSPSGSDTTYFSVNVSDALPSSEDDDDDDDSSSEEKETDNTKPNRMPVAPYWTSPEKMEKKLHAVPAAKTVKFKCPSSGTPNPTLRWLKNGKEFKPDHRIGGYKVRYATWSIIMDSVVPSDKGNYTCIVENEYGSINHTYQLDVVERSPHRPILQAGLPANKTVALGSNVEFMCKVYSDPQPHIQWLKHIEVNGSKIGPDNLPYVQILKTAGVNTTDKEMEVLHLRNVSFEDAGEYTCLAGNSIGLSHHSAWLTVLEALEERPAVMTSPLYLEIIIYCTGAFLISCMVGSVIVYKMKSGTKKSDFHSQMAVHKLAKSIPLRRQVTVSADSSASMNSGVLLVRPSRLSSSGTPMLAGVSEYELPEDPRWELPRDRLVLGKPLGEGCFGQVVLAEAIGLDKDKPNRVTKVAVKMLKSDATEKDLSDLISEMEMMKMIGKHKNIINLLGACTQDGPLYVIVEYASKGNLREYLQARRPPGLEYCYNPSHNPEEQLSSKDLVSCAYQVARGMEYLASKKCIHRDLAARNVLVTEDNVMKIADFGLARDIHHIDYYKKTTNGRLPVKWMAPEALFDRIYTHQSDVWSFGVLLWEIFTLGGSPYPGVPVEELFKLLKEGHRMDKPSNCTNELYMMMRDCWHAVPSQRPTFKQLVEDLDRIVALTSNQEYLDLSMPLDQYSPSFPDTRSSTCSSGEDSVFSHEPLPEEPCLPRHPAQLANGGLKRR
Experiment [4] concerns the target Insulin-like growth factor 1 receptor (Homo sapiens, UniProt P08069). Put plainly: Navigating the Kinome. Panel member name: IGF1R. Format: functional.
Experiment [5] concerns the target Vascular endothelial growth factor receptor 3 (Homo sapiens, UniProt P35916). Format: functional.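 Also: value from a kinome-wide profiling panel, with FLT4 as the panel member.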
Experiment [6] concerns the target Tyrosine-protein kinase Fyn (Homo sapiens, UniProt P06241). Format: functional.
Experiment [7] concerns the target Tyrosine-protein kinase FRK (Homo sapiens, UniProt P42685). Format: functional.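 Also: FRK tested as one member of a kinome panel.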
Experiment [8] has as its target T1, Sentrin-specific protease 8 (Homo sapiens, UniProt Q96LD8).
T1 sequence (Q96LD8 whole entry): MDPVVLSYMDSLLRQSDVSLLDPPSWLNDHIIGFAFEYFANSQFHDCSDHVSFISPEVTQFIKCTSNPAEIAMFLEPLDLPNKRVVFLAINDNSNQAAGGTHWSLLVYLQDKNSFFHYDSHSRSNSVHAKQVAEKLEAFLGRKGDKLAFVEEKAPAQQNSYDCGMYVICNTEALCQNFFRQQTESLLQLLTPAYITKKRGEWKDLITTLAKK
The experiment is described as follows: inhibition of human SENP8 cleavage activity – biochemical, luminescence, SAR follow-up (AID 504501). Format: functional.

Experiment [9] has as its target T2, Sentrin-specific protease 6 (Homo sapiens, UniProt Q9GZR1).
T2 sequence (Q9GZR1 whole entry): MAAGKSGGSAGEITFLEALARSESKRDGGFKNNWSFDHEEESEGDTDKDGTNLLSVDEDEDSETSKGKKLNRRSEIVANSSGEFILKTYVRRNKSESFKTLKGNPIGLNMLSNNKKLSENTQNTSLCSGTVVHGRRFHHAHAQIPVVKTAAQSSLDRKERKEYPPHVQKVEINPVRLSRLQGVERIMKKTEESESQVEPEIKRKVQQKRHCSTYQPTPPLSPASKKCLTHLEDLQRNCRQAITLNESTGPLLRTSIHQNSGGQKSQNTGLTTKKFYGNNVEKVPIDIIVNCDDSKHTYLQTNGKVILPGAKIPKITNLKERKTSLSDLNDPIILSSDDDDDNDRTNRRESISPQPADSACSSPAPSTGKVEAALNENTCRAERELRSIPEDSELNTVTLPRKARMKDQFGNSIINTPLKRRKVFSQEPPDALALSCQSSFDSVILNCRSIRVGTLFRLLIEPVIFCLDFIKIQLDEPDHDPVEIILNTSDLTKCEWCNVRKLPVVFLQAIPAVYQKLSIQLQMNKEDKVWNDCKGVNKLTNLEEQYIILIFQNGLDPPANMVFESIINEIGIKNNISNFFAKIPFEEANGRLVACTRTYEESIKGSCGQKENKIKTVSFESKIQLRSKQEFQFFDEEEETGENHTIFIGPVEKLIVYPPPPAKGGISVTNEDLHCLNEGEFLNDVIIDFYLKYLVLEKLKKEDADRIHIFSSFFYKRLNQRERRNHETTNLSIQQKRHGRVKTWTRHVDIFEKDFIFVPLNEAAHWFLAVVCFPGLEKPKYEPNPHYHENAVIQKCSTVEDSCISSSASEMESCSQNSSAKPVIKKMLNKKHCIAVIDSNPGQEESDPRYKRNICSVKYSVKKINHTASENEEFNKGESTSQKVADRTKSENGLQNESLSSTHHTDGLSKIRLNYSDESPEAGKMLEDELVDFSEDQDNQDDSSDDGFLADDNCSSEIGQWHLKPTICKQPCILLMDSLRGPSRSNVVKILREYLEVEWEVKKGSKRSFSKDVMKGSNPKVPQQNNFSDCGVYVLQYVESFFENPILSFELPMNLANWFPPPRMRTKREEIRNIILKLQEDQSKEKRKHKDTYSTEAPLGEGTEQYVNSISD
Put plainly: SAR Analysis of small molecule inhibitors of Sentrin-specific protease 6 (SENP6) using a Luminescent assay. [Related pubchem assays (depositor defined):AID2582, AID2599]. Format: functional.

The target of another experiment is Hexokinase-1 (Homo sapiens, UniProt P19367). Put plainly: HK1 enzyme activation by HKDC1 hits – biochemical, selectivity assay for HKDC1 activator project, dose response (AID 504762). In kind it is functional.
Chain of Hexokinase-1 (P19367 whole entry): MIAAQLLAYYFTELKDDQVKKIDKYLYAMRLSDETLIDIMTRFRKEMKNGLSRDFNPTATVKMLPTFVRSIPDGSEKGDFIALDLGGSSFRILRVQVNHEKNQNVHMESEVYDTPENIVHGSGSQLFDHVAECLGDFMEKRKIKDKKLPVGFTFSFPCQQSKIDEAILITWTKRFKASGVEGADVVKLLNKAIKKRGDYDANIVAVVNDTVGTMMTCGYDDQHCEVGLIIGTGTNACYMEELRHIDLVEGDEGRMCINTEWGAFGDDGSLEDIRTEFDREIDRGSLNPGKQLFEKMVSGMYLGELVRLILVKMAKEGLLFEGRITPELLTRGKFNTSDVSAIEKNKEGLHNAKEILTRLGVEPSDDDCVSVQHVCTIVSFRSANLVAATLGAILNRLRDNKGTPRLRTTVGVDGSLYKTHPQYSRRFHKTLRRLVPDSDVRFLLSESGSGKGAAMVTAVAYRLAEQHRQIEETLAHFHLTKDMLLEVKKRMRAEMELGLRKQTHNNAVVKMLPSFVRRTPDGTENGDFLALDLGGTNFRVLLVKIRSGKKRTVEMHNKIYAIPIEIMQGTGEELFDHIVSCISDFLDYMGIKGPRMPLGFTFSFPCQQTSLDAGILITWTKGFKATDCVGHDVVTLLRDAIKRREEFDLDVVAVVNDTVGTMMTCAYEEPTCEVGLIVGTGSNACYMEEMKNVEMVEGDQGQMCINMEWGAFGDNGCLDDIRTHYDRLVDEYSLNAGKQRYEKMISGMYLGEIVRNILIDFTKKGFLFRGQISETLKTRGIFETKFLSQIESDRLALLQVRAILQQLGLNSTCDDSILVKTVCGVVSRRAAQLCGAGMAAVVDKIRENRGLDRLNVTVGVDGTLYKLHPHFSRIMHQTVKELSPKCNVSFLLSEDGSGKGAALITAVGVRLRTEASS
The target of experiment [10] is T3, C-C chemokine receptor type 6 (Homo sapiens, UniProt P51684).
T3 sequence (P51684 whole entry): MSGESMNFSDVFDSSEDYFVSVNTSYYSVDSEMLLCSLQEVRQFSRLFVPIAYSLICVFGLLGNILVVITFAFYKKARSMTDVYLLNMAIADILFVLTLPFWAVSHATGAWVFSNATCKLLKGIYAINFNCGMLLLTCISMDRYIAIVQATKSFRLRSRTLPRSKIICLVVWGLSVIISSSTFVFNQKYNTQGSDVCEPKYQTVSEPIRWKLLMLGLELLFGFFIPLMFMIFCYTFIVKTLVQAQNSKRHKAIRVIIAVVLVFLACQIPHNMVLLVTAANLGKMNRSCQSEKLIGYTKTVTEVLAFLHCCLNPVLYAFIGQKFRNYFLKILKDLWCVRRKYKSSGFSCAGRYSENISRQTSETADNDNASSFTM
Put plainly: antagonism of CCR6 beta-arrestin recruitment – cell-based, luminescent beta-arrestin readout, dose response (AID 504728). Format: functional. For orientation: Activated receptors often draw arrestin, which recruitment assays turn into a signal.

Chain of Insulin-like growth factor 1 receptor (P08069 31-736 limits assumed): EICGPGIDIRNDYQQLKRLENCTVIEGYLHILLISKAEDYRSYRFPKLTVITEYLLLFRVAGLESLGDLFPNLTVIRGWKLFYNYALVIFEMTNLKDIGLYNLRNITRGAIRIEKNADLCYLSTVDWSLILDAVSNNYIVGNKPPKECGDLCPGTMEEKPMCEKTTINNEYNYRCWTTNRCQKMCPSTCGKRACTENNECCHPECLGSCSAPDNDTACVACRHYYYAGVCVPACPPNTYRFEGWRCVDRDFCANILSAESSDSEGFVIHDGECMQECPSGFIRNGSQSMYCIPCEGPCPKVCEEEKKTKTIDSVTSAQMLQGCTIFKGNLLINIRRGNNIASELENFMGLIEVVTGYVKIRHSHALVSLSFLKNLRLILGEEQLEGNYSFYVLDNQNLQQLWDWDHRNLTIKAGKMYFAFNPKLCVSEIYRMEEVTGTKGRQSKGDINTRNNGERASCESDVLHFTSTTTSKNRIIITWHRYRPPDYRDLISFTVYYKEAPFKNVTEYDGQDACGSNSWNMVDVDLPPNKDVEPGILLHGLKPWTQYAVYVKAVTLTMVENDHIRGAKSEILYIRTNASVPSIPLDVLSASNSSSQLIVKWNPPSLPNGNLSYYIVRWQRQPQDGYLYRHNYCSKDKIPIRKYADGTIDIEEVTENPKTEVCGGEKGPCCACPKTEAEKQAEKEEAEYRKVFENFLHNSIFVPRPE
Chain of Insulin-like growth factor 1 receptor (P08069 741-1367 limits assumed): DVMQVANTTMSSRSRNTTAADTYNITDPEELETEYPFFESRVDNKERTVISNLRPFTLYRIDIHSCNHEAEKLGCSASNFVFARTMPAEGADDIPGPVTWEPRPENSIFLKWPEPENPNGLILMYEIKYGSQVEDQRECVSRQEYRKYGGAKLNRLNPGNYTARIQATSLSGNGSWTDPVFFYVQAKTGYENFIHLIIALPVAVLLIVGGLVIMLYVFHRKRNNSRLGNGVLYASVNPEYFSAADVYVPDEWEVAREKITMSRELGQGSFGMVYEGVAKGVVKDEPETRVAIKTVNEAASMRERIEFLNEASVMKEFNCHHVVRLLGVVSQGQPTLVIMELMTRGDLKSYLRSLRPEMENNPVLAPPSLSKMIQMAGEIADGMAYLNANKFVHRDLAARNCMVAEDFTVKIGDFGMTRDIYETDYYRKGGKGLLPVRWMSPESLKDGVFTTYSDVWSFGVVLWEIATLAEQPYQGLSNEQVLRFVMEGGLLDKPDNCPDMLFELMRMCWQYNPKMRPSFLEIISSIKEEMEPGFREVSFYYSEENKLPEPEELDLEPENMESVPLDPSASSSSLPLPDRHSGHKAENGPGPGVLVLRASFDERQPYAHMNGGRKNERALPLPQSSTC
Chain of Tyrosine-protein kinase FRK (P42685 whole entry): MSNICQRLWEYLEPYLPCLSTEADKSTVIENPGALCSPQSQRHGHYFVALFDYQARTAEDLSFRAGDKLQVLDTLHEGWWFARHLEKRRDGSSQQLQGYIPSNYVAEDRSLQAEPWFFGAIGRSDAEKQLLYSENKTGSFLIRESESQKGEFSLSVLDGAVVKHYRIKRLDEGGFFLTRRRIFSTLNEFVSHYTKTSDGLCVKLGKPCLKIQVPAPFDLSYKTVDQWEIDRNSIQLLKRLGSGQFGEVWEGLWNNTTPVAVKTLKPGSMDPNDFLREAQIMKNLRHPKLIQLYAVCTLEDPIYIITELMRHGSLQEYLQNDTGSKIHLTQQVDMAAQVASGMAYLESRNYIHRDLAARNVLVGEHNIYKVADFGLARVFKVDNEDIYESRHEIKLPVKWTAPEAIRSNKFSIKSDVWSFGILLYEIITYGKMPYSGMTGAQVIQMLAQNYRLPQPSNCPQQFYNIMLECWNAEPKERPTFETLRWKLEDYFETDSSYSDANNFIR
Chain of Vascular endothelial growth factor receptor 3 (P35916 whole entry): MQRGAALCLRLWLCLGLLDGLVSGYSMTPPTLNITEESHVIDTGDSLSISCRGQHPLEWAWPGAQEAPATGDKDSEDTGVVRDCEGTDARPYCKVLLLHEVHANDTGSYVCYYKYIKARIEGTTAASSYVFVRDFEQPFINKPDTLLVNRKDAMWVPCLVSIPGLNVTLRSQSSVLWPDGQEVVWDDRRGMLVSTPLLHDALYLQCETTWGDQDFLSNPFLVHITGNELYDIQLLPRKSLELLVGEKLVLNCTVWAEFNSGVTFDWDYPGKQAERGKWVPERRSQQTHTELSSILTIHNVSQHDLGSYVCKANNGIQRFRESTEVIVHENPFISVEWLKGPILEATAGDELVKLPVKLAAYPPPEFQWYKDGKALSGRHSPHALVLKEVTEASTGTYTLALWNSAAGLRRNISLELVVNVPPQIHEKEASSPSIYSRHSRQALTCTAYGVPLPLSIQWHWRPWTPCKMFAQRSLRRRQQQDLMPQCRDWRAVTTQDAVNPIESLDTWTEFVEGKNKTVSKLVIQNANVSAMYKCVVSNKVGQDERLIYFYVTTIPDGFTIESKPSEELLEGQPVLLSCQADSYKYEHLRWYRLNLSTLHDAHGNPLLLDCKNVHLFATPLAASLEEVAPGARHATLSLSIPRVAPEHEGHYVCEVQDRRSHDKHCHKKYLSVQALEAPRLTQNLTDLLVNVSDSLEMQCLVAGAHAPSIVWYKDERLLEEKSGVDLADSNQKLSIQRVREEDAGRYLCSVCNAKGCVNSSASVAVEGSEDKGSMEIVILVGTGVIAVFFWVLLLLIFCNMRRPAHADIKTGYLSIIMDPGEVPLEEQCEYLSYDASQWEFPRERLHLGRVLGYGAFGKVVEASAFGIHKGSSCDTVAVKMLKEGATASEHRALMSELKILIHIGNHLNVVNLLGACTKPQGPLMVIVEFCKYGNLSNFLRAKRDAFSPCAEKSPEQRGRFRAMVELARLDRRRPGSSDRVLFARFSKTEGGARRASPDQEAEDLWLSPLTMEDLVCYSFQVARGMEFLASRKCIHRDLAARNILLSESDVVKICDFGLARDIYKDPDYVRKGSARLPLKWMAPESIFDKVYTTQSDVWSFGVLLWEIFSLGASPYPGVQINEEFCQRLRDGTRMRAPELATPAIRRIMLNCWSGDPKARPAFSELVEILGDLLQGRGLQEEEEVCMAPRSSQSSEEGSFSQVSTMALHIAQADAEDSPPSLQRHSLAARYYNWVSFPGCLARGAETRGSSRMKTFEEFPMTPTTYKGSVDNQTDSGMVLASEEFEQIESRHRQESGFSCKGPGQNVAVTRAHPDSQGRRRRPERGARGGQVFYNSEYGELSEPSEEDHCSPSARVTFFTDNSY

Take `Cc1ccc(Nc2cc(C)nn2-c2nc(C)cc(O)n2)cc1`: the concentration giving a half-maximal response (EC50) was 14 µM (active) with BJ and < 0.03 µM (active) in experiment [1].
On to `O=C1NC(=S)SC1=C1C(=O)Nc2ccc(Br)cc21`, for which the Ki in experiment [2] is 0.794 µM (active); in [3] it was > 5.01 µM (inactive); in experiment [4] it was > 2 µM (inactive); in experiment [5] it was > 6.31 µM (inactive); in experiment [6], > 0.794 µM (inactive); in experiment [7] it was > 2.51 µM (inactive).
For the compound `Cc1cnc(NC(=O)c2sc3ccccc3c2Cl)s1`, the IC50 is 3.78 µM (active) in experiment [8] and 3.95 µM (active) in experiment [9].
Regarding `O=C1C(Cl)=C(NCc2cccnc2)C(=O)c2ccccc21`, the EC50 at Hexokinase-1 is 30.8 µM (inactive).
Consider `CN(C)c1ncc(C2=C(Cl)C(=O)C(N3CCCC3)=C(Cl)C2=O)s1`, for which, in [10], the IC50 was > 66.6 µM (inactive).

Values taken from ChEMBL document CHEMBL1201862, “PubChem BioAssay data set” (2004).
